Test results taken from US7378081B2, “Composition and method for direct visualization of the human appendix” (Vincon Research Enterprises, LLC, priority 2003, dated 2008).

Test system: human appendix
Assay: Clinical data on delivery and concentration of diatrizoate iodine in the appendix
Type: in vivo
Conditions: following oral administration
Experimental: The bioavailability and release profile of diatrizoate appear dependent on both concentration and pH, which explains why
Critical to efficacy of the composition are ‘gasless’ enteric conditions and neutralization of the harsh acidity of gastric secretions that appear to inhibit the transit of intact diatrizoate to the appendix. Clinical trials show optimal appendiceal visualization at a critical concentration of 2.8 mg % iodine; however 5 mg % is considered optimal for ideal image contrast.

- time until organically bound iodine is delivered and concentrated in the human appendix: approximately 50 minutes
SMILES: CC(=O)Nc1c(I)c(NC(C)=O)c(I)c(C(=O)O)c1I [diatrizoate, 1-deoxy-1-(methylamino)-D-glucitol-3,5-diacetamido-2,4,6-triiodobenzoate]
